Assay results: patent US8669251B2, “8-fluorophthalazin-1(2H)-one compounds” (Genentech, Inc., priority 2011, dated 2014)

Tested on: production of CD69 by B lymphocytes in human whole blood
Assay: CD69 Whole Blood Assay (CD69 Hu Blood FACS)
Assay type: cell-based
Details: human whole blood activated with goat F(ab')2 anti-human IgM, 20 hours, CD69 on CD20 positive cells by FACS
Source text: A CD69 Whole Blood Assay can be conducted on Formula I compounds to determine the ability of compounds to inhibit the production of CD69 by B lymphocytes in human whole blood activated by crosslinking surface IgM with goat F(ab′)2 anti-human IgM (Example 907). CD69 is a type II C-type lectin involved in lymphocyte migration and cytokine secretion. CD69 expression represents one of the earliest available indicators of leukocyte activation and its rapid induction occurs through transcriptional activation (Vazquez et al (2009) Jour. of Immunology Published Oct. 19, 2009, doi:10.4049/jimmunol.0900839). Concentration-dependent inhibition of antigen receptor stimulation by selective Btk inhibitors induces cell surface expression of the lymphocyte activation marker CD69 (Honigberg et al (2010) Proc. Natl. Acad. Sci. 107(29):13075-13080). Thus, CD69 inhibition by selective Btk inhibitors may be correlated with therapeutic efficacy of certain B-cell disorders.
Human blood is obtained from healthy volunteers, with the following restrictions: 1 week drug-free, non-smokers. Blood (approximately 20 mls to test 8 compounds) is collected by venipuncture into Vacutainer® (Becton, Dickinson and Co.) tubes with sodium heparin.
Solutions of Formula I and II compounds at 10 mM in DMSO are diluted 1:10 in 100% DMSO, then are diluted by three-fold serial dilutions in 100% DMSO for a ten point dose-response curve. The compounds are further diluted 1:10 in PBS and then an aliquot of 5.5 μl of each compound is added in duplicate to a 2 ml 96-well plate; 5.5 μl of 10% DMSO in PBS is added as control and no-stimulus wells. Human whole blood —HWB (100 μl) is added to each well. After mixing the plates are incubated at 37° C., 5% CO2, 100% humidity for 30 minutes. Goat F(ab′)2 anti-human IgM (10 μl of a 500 μg/ml solution, 50 μg/ml final) is added to each well (except the no-stimulus wells) with mixing and the plates are incubated for an additional 20 hours. At the end of the 20 hour incubation, samples are incubated with fluorescent labeled antibodies for 30 minutes, at 37° C., 5% CO2, 100% humidity. Include induced control, unstained and single stains for compensation adjustments and initial voltage settings. Samples are then lysed with PharM Lyse™ (BD Biosciences Pharmingen) according to the manufacturer's instructions. Samples are then transferred to a 96 well plate suitable to be run on the BD Biosciences HTS 96 well system on the LSRII machine. Data acquired and Mean Fluorescence Intensity values were obtained using BD Biosciences DIVA Software. Results are initially analyzed by FACS analysis software (Flow Jo). […] The inhibitory concentration (IC50, IC70, IC90) values are calculated by Prism version 5, using a nonlinear regression curve fit.

CN1CCN(c2ccc(Nc3cc(-c4cccc(-n5ncc6cc(C(C)(C)C)cc(F)c6c5=O)c4CO)cn(C)c3=O)nc2)CC1 [Compound 101, 6-tert-butyl-8-fluoro-2-(2-(hydroxymethyl)-3-(1-methyl-5-(5-(4-methylpiperazin-1-yl)pyridin-2-yl-amino)-6-oxo-1,6-dihydropyridin-3-yl)phenyl)phthalazin-1(2H)-one]
CD69 Hu Blood FACS (IC70) (Table 1): 24 nM

Cn1cc(-c2cc(F)cc(-n3ncc4cc(C(C)(C)C)cc(F)c4c3=O)c2CO)cc(Nc2ccc(N3CCN(C4COC4)CC3)cn2)c1=O [Compound 102, 6-tert-butyl-8-fluoro-2-(5-fluoro-2-(hydroxymethyl)-3-(1-methyl-5-(5-(4-(oxetan-3-yl)piperazin-1-yl)pyridin-2-ylamino)-6-oxo-1,6-dihydropyridin-3-yl)phenyl)phthalazin-1(2H)-one]
CD69 Hu Blood FACS (IC70) (Table 1): 12 nM

Cn1cc(-c2ccnc(-n3ncc4cc(C(C)(C)C)cc(F)c4c3=O)c2CO)cc(Nc2ccc(N3CCN(C4COC4)CC3)cn2)c1=O [Compound 103, 6-tert-butyl-8-fluoro-2-(3-(hydroxymethyl)-4-(1-methyl-5-(5-(4-(oxetan-3-yl)piperazin-1-yl)pyridin-2-ylamino)-6-oxo-1,6dihydropyridin-3-yl)pyridin-2-yl)phthalazin-1(2H)-one]
CD69 Hu Blood FACS (IC70) (Table 1): 13 nM

C[C@H]1CN(C2COC2)CCN1c1ccc(Nc2cc(-c3cc(F)cc(-n4ncc5cc(C(C)(C)C)cc(F)c5c4=O)c3CO)cn(C)c2=O)nc1 [Compound 104, (S)-6-tert-butyl-8-fluoro-2-(5-fluoro-2-(hydroxymethyl)-3-(1-methyl-5-(5-(2-methyl-4-(oxetan-3-yl)piperazin-1-yl)pyridin-2-ylamino)-6-oxo-1,6-dihydropyridin-3-yl)phenyl)phthalazin-1(2H)-one]
CD69 Hu Blood FACS (IC70) (Table 1): 32.9 nM

C[C@H]1CN(C2COC2)CCN1c1ccc(Nc2cc(-c3ccnc(-n4ncc5cc(C(C)(C)C)cc(F)c5c4=O)c3CO)cn(C)c2=O)nc1 [Compound 105, (S)-6-tert-butyl-8-fluoro-2-(3-(hydroxymethyl)-4-(1-methyl-5-(5-(2-methyl-4-(oxetan-3-yl)piperazin-1-yl)pyridin-2-ylamino)-6-oxo-1,6-dihydropyridin-3-yl)pyridin-2-yl)phthalazin-1(2H)-one]
CD69 Hu Blood FACS (IC70) (Table 1): 6 nM

C[C@@H]1CN(C2COC2)CCN1c1ccc(Nc2cc(-c3cc(F)cc(-n4ncc5cc(C(C)(C)C)cc(F)c5c4=O)c3CO)cn(C)c2=O)nc1 [Compound 107, (R)-6-tert-butyl-8-fluoro-2-(5-fluoro-2-(hydroxymethyl)-3-(1-methyl-5-(5-(2-methyl-4-(oxetan-3-yl)piperazin-1-yl)pyridin-2-ylamino)-6-oxo-1,6-dihydropyridin-3-yl)phenyl)phthalazin-1(2H)-one]
CD69 Hu Blood FACS (IC70) (Table 1): 26.3 nM

C[C@H]1CN(C2COC2)CCN1c1ccc(Nc2cc(-c3cncc(-n4ncc5cc(C(C)(C)C)cc(F)c5c4=O)c3CO)cn(C)c2=O)nc1 [Compound 109, (S)-6-tert-butyl-8-fluoro-2-(4-(hydroxymethyl)-5-(1-methyl-5-(5-(2-methyl-4-(oxetan-3-yl)piperazin-1-yl)pyridin-2-ylamino)-6-oxo-1,6-dihydropyridin-3-yl)pyridin-3-yl)phthalazin-1(2H)-one]
CD69 Hu Blood FACS (IC70) (Table 1): 12 nM

C[C@@H]1CN(c2ccc(Nc3cc(-c4ccnc(-n5ncc6cc(C(C)(C)C)cc(F)c6c5=O)c4CO)cn(C)c3=O)nc2)[C@@H](C)CN1C1COC1 [Compound 110, 6-tert-butyl-2-(4-(5-(5-((2S,5R)-2,5-dimethyl-4-(oxetan-3-yl)piperazin-1-yl)pyridin-2-ylamino)-1-methyl-6-oxo-1,6-dihydropyridin-3-yl)-3-(hydroxymethyl)pyridin-2-yl)-8-fluorophthalazin-1(2H)-one]
CD69 Hu Blood FACS (IC70) (Table 1): 5.9 nM

CC[C@H]1CN(C2COC2)CCN1c1ccc(Nc2cc(-c3cc(F)cc(-n4ncc5cc(C(C)(C)C)cc(F)c5c4=O)c3CO)cn(C)c2=O)nc1 [Compound 111, (S)-6-tert-butyl-2-(3-(5-(5-(2-ethyl-4-(oxetan-3-yl)piperazin-1-yl)pyridin-2-ylamino)-1-methyl-6-oxo-1,6-dihydropyridin-3-yl)-5-fluoro-2-(hydroxymethyl)phenyl)-8-fluorophthalazin-1(2H)-one]
CD69 Hu Blood FACS (IC70) (Table 1): 37.4 nM

CC[C@H]1CN(C2COC2)CCN1c1ccc(Nc2cc(-c3ccnc(-n4ncc5cc(C(C)(C)C)cc(F)c5c4=O)c3CO)cn(C)c2=O)nc1 [Compound 112, (S)-6-tert-butyl-2-(4-(5-(5-(2-ethyl-4-(oxetan-3-yl)piperazin-1-yl)pyridin-2-ylamino)-1-methyl-6-oxo-1,6-dihydropyridin-3-yl)-3-(hydroxymethyl)pyridin-2-yl)-8-fluorophthalazin-1(2H)-one]
CD69 Hu Blood FACS (IC70) (Table 1): 32.9 nM

Cn1cc(-c2ccnc(-n3ncc4cc(C(C)(C)C)cc(F)c4c3=O)c2CO)cc(Nc2ccncn2)c1=O [Compound 113, 6-tert-butyl-8-fluoro-2-[3-(hydroxymethyl)-4-[1-methyl-6-oxo-5-(pyrimidin-4-ylamino)-3-pyridyl]-2-pyridyl]phthalazin-1-one]
CD69 Hu Blood FACS (IC70) (Table 2): 82.3 nM

Cc1nccc(Nc2cc(-c3ccnc(-n4ncc5cc(C(C)(C)C)cc(F)c5c4=O)c3CO)cn(C)c2=O)n1 [Compound 114, 6-tert-butyl-8-fluoro-2-[3-(hydroxymethyl)-4-[1-methyl-5-[(2-methylpyrimidin-4-yl)amino]-6-oxo-3-pyridyl]-2-pyridyl]phthalazin-1-one]
CD69 Hu Blood FACS (IC70) (Table 2): 11.4 nM

CN1CCc2nc(Nc3cc(-c4ccnc(-n5ncc6cc(C(C)(C)C)cc(F)c6c5=O)c4CO)cn(C)c3=O)sc2C1 [Compound 115, 6-tert-butyl-8-fluoro-2-[3-(hydroxymethyl)-4-[1-methyl-5-[(5-methyl-6,7-dihydro-4H-thiazolo[5,4-c]pyridin-2-yl)amino]-6-oxo-3-pyridyl]-2-pyridyl]phthalazin-1-one]
CD69 Hu Blood FACS (IC70) (Table 2): 73.2 nM

Cn1nc(-c2ccnc(-n3ncc4cc(C(C)(C)C)cc(F)c4c3=O)c2CO)cc(Nc2ccc(C(=O)N3CCOCC3)cn2)c1=O [Compound 116, 6-tert-butyl-8-fluoro-2-[3-(hydroxymethyl)-4-[1-methyl-5-[[5-(morpholine-4-carbonyl)-2-pyridyl]amino]-6-oxo-pyridazin-3-yl]-2-pyridyl]phthalazin-1-one]
CD69 Hu Blood FACS (IC70) (Table 2): 93.5 nM

C[C@H]1CN(C2COC2)CCN1c1ccc(Nc2cc(-c3ccnc(-n4ncc5cc(C(C)(C)C)cc(F)c5c4=O)c3CO)nn(C)c2=O)nc1 [Compound 117, 6-tert-butyl-8-fluoro-2-[3-(hydroxymethyl)-4-[1-methyl-5-[[5-[(2S)-2-methyl-4-(oxetan-3-yl)piperazin-1-yl]-2-pyridyl]amino]-6-oxo-pyridazin-3-yl]-2-pyridyl]phthalazin-1-one]
CD69 Hu Blood FACS (IC70) (Table 2): 16.5 nM

CCn1nc(Nc2cc(-c3ccnc(-n4ncc5cc(C(C)(C)C)cc(F)c5c4=O)c3CO)cn(C)c2=O)cc1C [Compound 118, 6-tert-butyl-2-[4-[5-[(1-ethyl-5-methyl-pyrazol-3-yl)amino]-1-methyl-6-oxo-3-pyridyl]-3-(hydroxymethyl)-2-pyridyl]-8-fluoro-phthalazin-1-one]
CD69 Hu Blood FACS (IC70) (Table 2): 112 nM

Cc1cc(Nc2cc(-c3ccnc(-n4ncc5cc(C(C)(C)C)cc(F)c5c4=O)c3CO)cn(C)c2=O)nn1C [Compound 119, 6-tert-butyl-2-[4-[5-[(1,5-dimethylpyrazol-3-yl)amino]-1-methyl-6-oxo-3-pyridyl]-3-(hydroxymethyl)-2-pyridyl]-8-fluoro-phthalazin-1-one]
CD69 Hu Blood FACS (IC70) (Table 2): 24.7 nM

Cc1cnc(Nc2cc(-c3ccnc(-n4ncc5cc(C(C)(C)C)cc(F)c5c4=O)c3CO)cn(C)c2=O)s1 [Compound 120, 6-tert-butyl-8-fluoro-2-[3-(hydroxymethyl)-4-[1-methyl-5-[(5-methylthiazol-2-yl)amino]-6-oxo-3-pyridyl]-2-pyridyl]phthalazin-1-one]
CD69 Hu Blood FACS (IC70) (Table 2): 139 nM

Cc1cc(Nc2cc(-c3ccnc(-n4ncc5cc(C(C)(C)C)cc(F)c5c4=O)c3CO)cn(C)c2=O)n[nH]1 [Compound 121, 6-tert-butyl-8-fluoro-2-[3-(hydroxymethyl)-4-[1-methyl-5-[(5-methyl-1H-pyrazol-3-yl)amino]-6-oxo-3-pyridyl]-2-pyridyl]phthalazin-1-one]
CD69 Hu Blood FACS (IC70) (Table 2): 79.3 nM
